Results on 14 compounds are retold here after PubChem BioAssay (NCI).

Structures are written as SMILES.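 Following 48 hours of exposure in 96-well plates, responses at five concentrations were used to interpolate endpoints linearly. GI50 = concentration required for 50% inhibition of growth. The concentration for full growth arrest is given as TGI.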

Assay in all cases: NCI tumour cell line growth inhibition, 48 h
Test [1] deals with UACC-62 melanoma.
In test [2] the test system is TK-10 renal.
Test [3] relates to HL-60(TB) leukemia.
The test system of test [4] is K-562 leukemia.
In test [5] the test system is NCI-H522 lung.
The test system of test [6] is SNB-19 CNS.
The subject of test [7] is HCT-15 colon.
Test [8] has as its system HCC-2998 colon.
For test [9], the system named is ACHN renal.
Test [10] concerns UO-31 renal.

With `COc1ccc([C@H]2C=C(c3cc(F)c(Cl)cc3Cl)NC(=S)N2)cc1`, the TGI in test [1] is greater than 100 µM; in [2], greater than 100 µM; in [3] it was 35.7 µM; in test [4] it was greater than 100 µM; in test [5], greater than 100 µM; in [6], greater than 100 µM. Further, the TGI is greater than 100 µM in test [7], 70.5 µM in test [8], greater than 100 µM in [9] and greater than 100 µM in test [10].

Regarding `NC(=O)Nc1cc(O)ccc1N=Nc1ccc(S(=O)(=O)Nc2ccccn2)cc1`, the TGI in [1], in test [2], in test [3], in [4], in test [5] and in [6] was greater than 100 µM throughout. The TGI in [7], in test [8], in test [9] and in test [10] was greater than 100 µM throughout.

In the case of `Cc1cc(N(CCCCl)CCCCl)ccc1C=Nc1cccc(Cl)c1`, the TGI in test [1] was found to be 7.28 µM; in test [2], 27.5 µM; in test [3], 38 µM; in test [4], 22.7 µM; in test [5] it was 43.7 µM; in test [6], 34.6 µM. For the same compound, the TGI in [7] was 30.2 µM; in test [9], 25.8 µM; in test [10], 44.2 µM.

On to `O=c1cc(O)c2ccccc2o1`, for which the TGI in test [1], in test [2], in test [3], in test [4], in test [5] and in test [6] was greater than 100 µM in each case. Besides, the TGI in [8], in test [9] and in test [10] was greater than 100 µM throughout.

Turning to `CCCCCCCCCCCCCCCCOCC(COP(=O)([O-])OCC[n+]1ccc(N(C)C)cc1)OCC` (stereo unspecified), the TGI stood at 29 µM in test [1]; 28.9 µM in test [2]; 3.79 µM in test [3]; 36.6 µM in test [4]; 29.2 µM in test [5]; 14.4 µM in test [6]. In addition, the TGI in test [7] was 32.5 µM; in test [8], 27.6 µM; in test [9], 30.9 µM; in test [10] it was 29.4 µM.

On to `CC[C@H](C)C1=C(O)[N@+]2([O-])Oc3ccc(-c4c(O)c(O)c(-c5ccc(OC(C)=O)cc5)c(OC(C)=O)c4OC(C)=O)cc3O[C@]2([C@@H](C)CC)C(=O)N1O`, for which the TGI in test [1] was greater than 50 µM; in test [2], greater than 50 µM; in test [3] it was greater than 50 µM; in test [4] it was 31.5 µM; in [5] it was 18 µM; in [6] it was greater than 50 µM. For the same compound, the TGI is greater than 50 µM in test [7], 24.5 µM in [8], greater than 50 µM in test [9] and greater than 50 µM in [10].

With `Nc1ccc(Nc2c3ccccc3nc3ccccc23)cc1`, the TGI in [1] is 5.22 µM; in [2], greater than 10 µM; in [3], greater than 10 µM; in [4], greater than 10 µM; in test [5], greater than 10 µM; in test [6], greater than 10 µM. In addition, the TGI is greater than 10 µM in [7], greater than 10 µM in test [8] and 4.58 µM in test [9].

Regarding `COc1cc(C)c2c(=O)c3c(oc2c1)C(=O)c1c(O)c(OC)cc(O)c1C3=O`, the TGI in test [1] was 4.61 µM; in [3], 2.57 µM; in test [4], 4.39 µM; in [5], 9.17 µM; in [6] it was 7.89 µM; in test [7] it was 3.79 µM. Besides, the TGI in test [8] stood at 25 µM; in [10], 3.62 µM.

`COc1ccc(OC)c(C#Cc2ccc(OC)c(C(=O)NCCc3ccc(F)cc3)c2)c1`: the GI50 in test [1] was 5.96 µM. The TGI in test [1], in test [2], in test [3], in test [4], in test [5] and in test [6] was greater than 100 µM throughout. In addition, the TGI in test [7] was greater than 100 µM; in [8] it was 7.73 µM; in test [9], greater than 100 µM; in test [10], greater than 100 µM.

For the compound `O=C1c2ccccc2C(=O)c2c1ccc(C(=O)O)c2-c1ccc2ccccc2c1`, the TGI in [1] is 37.8 µM; in test [2], greater than 100 µM; in test [3], 61.2 µM; in test [4] it was 85.7 µM; in test [5], 59.3 µM; in test [6], greater than 100 µM. For the same compound, the TGI in [7] is 56.6 µM; in test [8], greater than 100 µM; in [9] it was greater than 100 µM; in [10], 83.3 µM.

Regarding `COc1c(Cl)cc(S(=O)O)cc1Cl`, the TGI in [1], in test [2], in [3], in test [4], in test [5] and in test [6] was greater than 100 µM in each case. Also, the TGI in test [8], in test [9] and in test [10] was greater than 100 µM in each case.

With `CC1(O)CC23CC1CCC2(C)C12CCCC(C)(C(=O)O1)C2CC3O` (stereo unspecified), the TGI in test [1], in test [2], in test [4], in test [5], in test [6] and in test [7] was greater than 100 µM each time. Moreover, the TGI in test [8], in test [9] and in test [10] was greater than 100 µM each time.

On to `O=C(Nc1nnc(-c2c(Cl)c(Cl)c(Cl)c(Cl)c2-c2nc3cc(C(=O)c4ccccc4)ccc3[nH]2)o1)c1ccccc1`, for which the TGI in test [2] is 50.7 µM; in test [3], 65.3 µM; in [4] it was greater than 100 µM; in [6], 34.7 µM; in [7], 36.7 µM; in [9], 55.6 µM. For the same compound, in test [10], the TGI was greater than 100 µM.

In the case of `C[C@]12CC[C@H](O)C=C1CC[C@@H]1[C@@H]2CC[C@]2(C)C(=N/O)/C(=C/c3ccncc3)C[C@@H]12`, the TGI is 19.3 µM in test [1]; 38.3 µM in test [2]; 35.4 µM in test [3]; greater than 100 µM in test [4]; 33.3 µM in [5]; 32 µM in [6]. In addition, the TGI in test [7] was greater than 100 µM; in test [8] it was 12.5 µM; in test [9] it was 23.8 µM; in test [10], 20.5 µM.
